Results from the NIST ThermoML archive (doi:10.1021/je301301j).

Key:
[1] = Liquid; for viscosity: Concentric cylinders viscometry; for mass density: Vibrating tube method
[2] = xn = mol fraction of the nth substance listed; details: 100 kPa, Liquid, Concentric cylinders viscometry, x1 = 1
[3] = molar heat capacity at constant pressure; details: Liquid, Flow calorimetry

CCCCO [butan-1-ol]
[1], 100 kPa
Details	viscosity [mPa·s]
293.15 K	2.953
303.15 K	2.263
313.15 K	1.769

CCCCO [butan-1-ol] + C=CCCCC
[2]
Details	viscosity [mPa·s]
293.15 K	2.953
303.15 K	2.263
313.15 K	1.769

C=CCCCC [hex-1-ene]
Details	mass density [kg/m3]	molar heat capacity at constant pressure [J/K/mol]	viscosity [mPa·s]
[1], 273.15 K, 100 kPa	691.5	–	–
[1], 273.15 K, 1000 kPa	692.1	–	–
[1], 273.15 K, 2000 kPa	693	–	–
[1], 273.15 K, 5000 kPa	695.8	–	–
[1], 273.15 K, 10000 kPa	700	–	–
[1], 273.15 K, 15000 kPa	704	–	–
[1], 273.15 K, 20000 kPa	707.8	–	–
[1], 273.15 K, 30000 kPa	715	–	–
[1], 273.15 K, 40000 kPa	721.6	–	–
[1], 273.15 K, 50000 kPa	727.6	–	–
[1], 273.15 K, 60000 kPa	733.2	–	–
[1], 273.15 K, 70000 kPa	738.7	–	–
[1], 293.15 K, 100 kPa	672.8	–	0.28
[1], 293.15 K, 1000 kPa	673.8	–	–
[1], 293.15 K, 2000 kPa	674.9	–	–
[1], 293.15 K, 5000 kPa	678	–	–
[1], 293.15 K, 10000 kPa	682.9	–	–
[1], 293.15 K, 15000 kPa	687.5	–	–
[1], 293.15 K, 20000 kPa	691.8	–	–
[1], 293.15 K, 30000 kPa	699.8	–	–
[1], 293.15 K, 40000 kPa	707	–	–
[1], 293.15 K, 50000 kPa	713.7	–	–
[1], 293.15 K, 60000 kPa	719.9	–	–
[1], 293.15 K, 70000 kPa	725.8	–	–
[1], 303.15 K, 100 kPa	–	–	0.257
[1], 313.15 K, 100 kPa	653.8	–	0.236
[1], 313.15 K, 1000 kPa	654.9	–	–
[1], 313.15 K, 2000 kPa	656.2	–	–
[1], 313.15 K, 5000 kPa	659.9	–	–
[1], 313.15 K, 10000 kPa	665.5	–	–
[1], 313.15 K, 15000 kPa	670.8	–	–
[1], 313.15 K, 20000 kPa	675.7	–	–
[1], 313.15 K, 30000 kPa	684.6	–	–
[1], 313.15 K, 40000 kPa	692.6	–	–
[1], 313.15 K, 50000 kPa	699.9	–	–
[1], 313.15 K, 60000 kPa	706.9	–	–
[1], 313.15 K, 70000 kPa	713	–	–
[1], 333.15 K, 100 kPa	634	–	–
[1], 333.15 K, 1000 kPa	635.4	–	–
[1], 333.15 K, 2000 kPa	636.9	–	–
[1], 333.15 K, 5000 kPa	641.3	–	–
[1], 333.15 K, 10000 kPa	647.8	–	–
[1], 333.15 K, 15000 kPa	653.9	–	–
[1], 333.15 K, 20000 kPa	659.5	–	–
[1], 333.15 K, 30000 kPa	669.5	–	–
[1], 333.15 K, 40000 kPa	678.4	–	–
[1], 333.15 K, 50000 kPa	686.3	–	–
[1], 333.15 K, 60000 kPa	693.7	–	–
[1], 333.15 K, 70000 kPa	700.5	–	–
[3], 293.15 K, 100 kPa	–	179.2	–
[3], 293.15 K, 5000 kPa	–	174.9	–
[3], 293.15 K, 10000 kPa	–	172.7	–
[3], 293.15 K, 15000 kPa	–	169.9	–
[3], 293.15 K, 20000 kPa	–	168.1	–
[3], 293.15 K, 25000 kPa	–	165.7	–
[3], 313.15 K, 100 kPa	–	188.8	–
[3], 313.15 K, 5000 kPa	–	185.9	–
[3], 313.15 K, 10000 kPa	–	183.1	–
[3], 313.15 K, 15000 kPa	–	181.6	–
[3], 313.15 K, 20000 kPa	–	179.6	–
[3], 313.15 K, 25000 kPa	–	177.2	–
